{"source": "patent US7166744B2", "about": "“Retinoid derivatives and methods for producing said compounds and anti-cancer pharmaceutical composition comprising said compounds” (Chebigen Co., Ltd., priority 2001, dated 2007)", "assay_type_in_all_cases": "cell-based", "key": {"[1]": {"tested_on": "HCT116 colon cancer cells", "assay": "DNA fragmentation assay (agarose gel), HCT116", "settings": "for fragmentation of chromosomal DNA (agarose gel): Experimental Example 8, cells treated as above; for DNA ladder (DNA fragmentation): HCT116, 2.5, 5.0, 10 μM, 48 hours", "protocol": "After treated with each retinoid derivative at various concentrations (2.5, 5.0, 10 μM) for 48 hours, HCT116 or MCF-7 cells were poured in 1 mL of PBS and centrifuged at a rate of 13,000 rpm at 4° C. for 1 min. The resulting cell pellets were resuspended in 700 μl of lysis buffer (500 mM Tris, 100 mM EDTA, 0.5% SDS) containing 17.5 μl of proteinase K (20 mg/ml), and incubated on 55° C. water bath for 3 hours. The lysates were mixed with 700 μl of phenol solution while slowly stirring and centrifuged at 12,000 rpm for 5 min. The supernatants were separated and extracted with phenol once more. The supernatants were mixed with 600 μl of 100% ethanol and 60 μl of 3M NaOAc (pH 7.0) and left at −20° C. for 2 hours. The supernatants were removed by centrifugation at 12,000 rpm for 10 min to obtain pellets. After 70% ethanol washing and drying, DNA pellet was resuspended in 100 μl of TE (Tris-EDTA) buffer and treated with RNase A. The obtained samples were electrophoresed for 2 hours at 75 V on 1.8% agarose gels.\nIn order to confirm the above results, DNA was separated from the cells treated as above and examined for DNA fragmentation by agarose gel electrophoresis (FIG. 13)."}, "AP-1 (c-Jun)": {"tested_on": "AP-1 (c-Jun)", "assay": "AP-1 CAT reporter assay (c-Jun cotransfection)", "settings": "1 μM; for AP-1 reporter CAT expression, −c-Jun/−RARα: control = 1.0; for AP-1 reporter CAT expression, +c-Jun/+RARα / AP-1 reporter CAT expression, +c-Jun/−RARα: control = 5.0; for suppression of AP-1 activity: Experimental Example 5; for repression of AP-1 activity: Experimental Example 10, text", "excerpt": "As the reporter gene, the CAT enzyme gene with a site recognizing AP-1 of collagenase was used."}, "RXRβ": {"target": "T1, RXRβ (Homo sapiens, UniProt P28702)", "T1 construct": "expressed in transfected cells", "T1 sequence (P28702 1-533)": "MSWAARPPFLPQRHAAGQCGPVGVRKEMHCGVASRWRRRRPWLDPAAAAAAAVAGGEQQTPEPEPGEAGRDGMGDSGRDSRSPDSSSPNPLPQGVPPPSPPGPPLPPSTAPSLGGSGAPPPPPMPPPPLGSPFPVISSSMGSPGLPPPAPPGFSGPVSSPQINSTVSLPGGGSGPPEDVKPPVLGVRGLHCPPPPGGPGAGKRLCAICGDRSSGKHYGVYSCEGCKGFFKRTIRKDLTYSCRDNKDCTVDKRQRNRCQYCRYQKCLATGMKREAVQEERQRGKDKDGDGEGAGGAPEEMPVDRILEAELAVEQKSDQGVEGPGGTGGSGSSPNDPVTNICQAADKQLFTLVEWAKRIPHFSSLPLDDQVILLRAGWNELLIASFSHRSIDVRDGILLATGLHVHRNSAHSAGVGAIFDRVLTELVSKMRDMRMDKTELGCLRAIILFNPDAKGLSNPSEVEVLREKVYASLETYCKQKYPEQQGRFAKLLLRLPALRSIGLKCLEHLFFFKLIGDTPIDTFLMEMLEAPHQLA", "assay": "CAT reporter assay, RXRβ", "settings": "1 μM, control = 1.0, RA = 9-cis RA; for expression level of CAT enzyme, RXRβ −: column '−'", "excerpt": "(§1) As the reporter gene, chloramphenicol acetyltransferase (CAT) with a transcription control site reactive to respective receptors was used."}, "[2]": {"tested_on": "HCT116 colon cancer cells", "assay": "DAPI staining of nuclei, HCT116", "settings": "for nuclear condensation and fragmentation (DAPI): HCT116, 5 μM, 36 h; for nuclear condensation (DAPI): HCT116, Experimental Example 8", "protocol": "By DAPI (4,6-diamidino-2-phenylindole) staining assay for staining DNA in cellular nucleus, nuclear condensation and fragmentation, characteristic features of apoptosis, were observed. […] In FIG. 4, the control represents non-treated cells. The sub-G1 DNA contents of colon cancer HTC116 cells and breast cancer MCF-7 cells were measured by FACS (Fluorescence-Activated Cell Sorter) assay to quantify the apoptosis (FIG. 5). Finally, in order to further characterize the apoptosis observed in retinoid derivative-treated cells, the cleavage of apoptosis-related proteins, including PARP (poly(ADP-ribose)polymerase) and CPP32 (caspase-3) by Western blotting. […] PARP cleavage occurred in a time-dependent manner, in parallel with the induction of apoptosis (FIG. 6B). C in FIG. 6 represents the result of Western blotting of non-treated cells.\nMeanwhile, HPR which is a precursor during the synthesis process of KCBG60 is known to induce apoptosis. Considering that the cells aggregated into small spherical mass upon treatment with KCBG60, KCBG60 is expected to induce apoptosis. In order to confirm apoptosis induced by KCBG60 once again, KCBG60-treated HCT116 cells were stained with DAPI and observed for nuclear condensation, an indicative of apoptosis (FIG. 12)."}, "RXRγ": {"target": "T2, RXRγ (Homo sapiens, UniProt P48443)", "T2 construct": "expressed in transfected cells", "T2 sequence (P48443 1-463)": "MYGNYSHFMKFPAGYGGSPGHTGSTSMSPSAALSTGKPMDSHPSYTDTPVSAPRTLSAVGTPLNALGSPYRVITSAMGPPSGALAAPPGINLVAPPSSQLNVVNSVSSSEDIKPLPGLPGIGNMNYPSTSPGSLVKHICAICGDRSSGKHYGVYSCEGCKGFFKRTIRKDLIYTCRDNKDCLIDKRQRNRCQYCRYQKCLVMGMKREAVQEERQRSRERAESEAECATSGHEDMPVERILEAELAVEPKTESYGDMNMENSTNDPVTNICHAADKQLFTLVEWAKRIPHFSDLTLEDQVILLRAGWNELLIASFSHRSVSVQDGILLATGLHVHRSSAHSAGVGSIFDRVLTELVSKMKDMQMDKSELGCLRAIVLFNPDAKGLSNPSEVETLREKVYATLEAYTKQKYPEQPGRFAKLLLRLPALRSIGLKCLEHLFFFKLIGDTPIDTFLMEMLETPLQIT", "assay": "CAT reporter assay, RXRγ", "settings": "1 μM, control = 1.0, RA = 9-cis RA; for expression level of CAT enzyme, RXRγ −: column '−'", "excerpt": "as §1"}, "MMP-1 mRNA expression": {"tested_on": "MMP-1 mRNA expression", "assay": "RT-PCR of MMP-1 mRNA in HCT116", "settings": "HCT116, 1 μM; for inhibition of MMP-1 mRNA expression: 36 hours", "protocol": "Previously, it was shown that the synthetic retinoid derivatives inhibit the transcriptional activity of AP-1. Also, it is well known that MMP (matrix metalloproteinase), a main target gene of AP-1 is involved in metastasis of cancer cells. Therefore, the inhibitive effects of the retinoid derivatives on metastasis of cancer was examined by RT-PCR analysis. Colon cancer HCT116 cells were treated with 1 μM retinoid for 36 hours. RNA was isolated from the cells and mRNA expression levels of MMP-1, -2 and -3 were analyzed by RT-PCR. […] As the control, GAPDH was used and it was confirmed that its expression was not affected by retinoid. Meanwhile, the expression level of MMP-3 was affected weakly by KCBG40, intermediately by KCBG41 but strongly by KCBG10 (FIG. 9).\nRNA was isolated from the cells and mRNA expression levels of MMP-1, -2 and -3 were analyzed by RT-PCR (FIG. 14)."}}, "note": "Entries after “also recorded” stand apart in the source; their conditions may differ."}
{"compound": "CC1=C(/C=C/C(C)=C/C=C/C(C)=C/C(=O)O)C(C)(C)CCC1", "note": "[ATRA, All-trans-retinoic acid, reference compound]", "values": [{"measurement": "fragmentation of chromosomal DNA (agarose gel)", "setting": "[1]", "value": "DNA ladder caused by fragmentation of chromosomal DNA was detected"}, {"measurement": "AP-1 reporter CAT expression, −c-Jun/−RARα", "setting": "AP-1 (c-Jun)", "value": 0.6}, {"measurement": "AP-1 reporter CAT expression, +c-Jun/+RARα", "setting": "AP-1 (c-Jun)", "value": 2.0}, {"measurement": "AP-1 reporter CAT expression, +c-Jun/−RARα", "setting": "AP-1 (c-Jun)", "value": 3.5}]}
{"compound": "CC1=C(/C=C/C(C)=C/C=C/C(C)=C/C(=O)Nc2ccc(O)cc2)C(C)(C)CCC1", "note": "[HPR, (2E,4E,6E,8E)-[3,7-dimethyl-9-(2,6,6-trimethylcyclohex-1-enyl)-nona-2,4,6,8-tetraenoylamino]-4-hydroxyphenylamide]", "values": [{"measurement": "DNA ladder (DNA fragmentation)", "setting": "[1]", "value": "did not show any DNA ladder"}, {"measurement": "AP-1 reporter CAT expression, −c-Jun/−RARα", "setting": "AP-1 (c-Jun)", "value": 0.7}, {"measurement": "AP-1 reporter CAT expression, +c-Jun/+RARα", "setting": "AP-1 (c-Jun)", "value": 2.2}, {"measurement": "AP-1 reporter CAT expression, +c-Jun/−RARα", "setting": "AP-1 (c-Jun)", "value": 3.7}, {"measurement": "expression level of CAT enzyme, RXRβ +", "setting": "RXRβ", "value": 1.4}, {"measurement": "expression level of CAT enzyme, RXRβ −", "setting": "RXRβ", "value": 0.6}, {"measurement": "nuclear condensation and fragmentation (DAPI)", "setting": "[2]", "value": "largely showed nuclear fragmentation"}, {"measurement": "expression level of CAT enzyme, RXRγ +", "setting": "RXRγ", "value": 1.5}, {"measurement": "expression level of CAT enzyme, RXRγ −", "setting": "RXRγ", "value": 1.3}, {"measurement": "inhibition of MMP-1 mRNA expression", "setting": "MMP-1 mRNA expression", "value": "affected very little"}]}
{"compound": "CCCC(=O)Oc1cc(O)ccc1NC(=O)/C=C(C)/C=C/C=C(C)/C=C/C1=C(C)CCCC1(C)C", "note": "[KCBG10, 2.2-[(2E,4E,6E,8E)-3,7-Dimethyl-9-(2,6,6-trimethylcyclohex-1-enyl)-nona-2,4,6,8-tetraenoylamino]-5-hydroxyphenylbutanoate]", "values": [{"measurement": "DNA ladder (DNA fragmentation)", "setting": "[1]", "value": "DNA band of the ladder shape caused by DNA fragmentation was well detected"}, {"measurement": "suppression of AP-1 activity", "setting": "AP-1 (c-Jun)", "value": "~50", "unit": "%"}, {"measurement": "nuclear condensation and fragmentation (DAPI)", "setting": "[2]", "value": "largely showed nuclear fragmentation"}, {"measurement": "inhibition of MMP-1 mRNA expression", "setting": "MMP-1 mRNA expression", "value": "weakly"}]}
{"compound": "CCCC(=O)Nc1cc(NC(=O)/C=C(C)/C=C/C=C(C)/C=C/C2=C(C)CCCC2(C)C)ccc1O", "note": "[KCBG41, (2E,4E,6E,8E)-[3,7-dimethyl-9-(2,6,6-trimethylcyclohex-1-enyl)-nona-2,4,6,8-tetraenoylamino]-(3-butyrylamino-4-hydroxy)phenylamide]", "values": [{"measurement": "DNA ladder (DNA fragmentation)", "setting": "[1]", "value": "DNA band of the ladder shape caused by DNA fragmentation was well detected; also recorded: at a similar concentration showed DNA fragmentation"}, {"measurement": "suppression of AP-1 activity", "setting": "AP-1 (c-Jun)", "value": "~50", "unit": "%"}, {"measurement": "nuclear condensation and fragmentation (DAPI)", "setting": "[2]", "value": "largely showed nuclear fragmentation"}, {"measurement": "inhibition of MMP-1 mRNA expression", "setting": "MMP-1 mRNA expression", "value": "strongly"}]}
{"compound": "CCCC(=O)Oc1ccc(NC(=O)/C=C(C)/C=C/C=C(C)/C=C/C2=C(C)CCCC2(C)C)cc1", "note": "[KCBG60]", "values": [{"measurement": "fragmentation of chromosomal DNA (agarose gel)", "setting": "[1]", "value": "DNA ladder caused by fragmentation of chromosomal DNA was detected"}, {"measurement": "repression of AP-1 activity", "setting": "AP-1 (c-Jun)", "value": "about 50%"}, {"measurement": "AP-1 reporter CAT expression, −c-Jun/−RARα", "setting": "AP-1 (c-Jun)", "value": 0.6}, {"measurement": "AP-1 reporter CAT expression, +c-Jun/+RARα", "setting": "AP-1 (c-Jun)", "value": 2.4}, {"measurement": "AP-1 reporter CAT expression, +c-Jun/−RARα", "setting": "AP-1 (c-Jun)", "value": 3.6}, {"measurement": "expression level of CAT enzyme, RXRβ +", "setting": "RXRβ", "value": 1.1}, {"measurement": "expression level of CAT enzyme, RXRβ −", "setting": "RXRβ", "value": 0.5}, {"measurement": "nuclear condensation (DAPI)", "setting": "[2]", "value": "showed small spots, indicating nuclear condensation"}, {"measurement": "expression level of CAT enzyme, RXRγ +", "setting": "RXRγ", "value": 1.4}, {"measurement": "expression level of CAT enzyme, RXRγ −", "setting": "RXRγ", "value": 1.2}, {"measurement": "MMP-1 mRNA reduction compared to ATRA and phenyl butylate", "setting": "MMP-1 mRNA expression; 24 hours", "value": "two times increased"}, {"measurement": "reduction of MMP-1 mRNA level", "setting": "MMP-1 mRNA expression; 24 hours", "value": "about 50%"}]}
{"compound": "phenyl butylate", "values": [{"measurement": "fragmentation of chromosomal DNA (agarose gel)", "setting": "[1]", "value": "did not induce any fragmentation of chromosomal DNA"}, {"measurement": "repression of AP-1 activity", "setting": "AP-1 (c-Jun)", "value": "did not affect"}, {"measurement": "AP-1 reporter CAT expression, −c-Jun/−RARα", "setting": "AP-1 (c-Jun)", "value": 1.0}, {"measurement": "AP-1 reporter CAT expression, +c-Jun/+RARα", "setting": "AP-1 (c-Jun)", "value": 5.3}, {"measurement": "AP-1 reporter CAT expression, +c-Jun/−RARα", "setting": "AP-1 (c-Jun)", "value": 4.7}, {"measurement": "expression level of CAT enzyme, RXRβ +", "setting": "RXRβ", "value": 1.1}, {"measurement": "expression level of CAT enzyme, RXRβ −", "setting": "RXRβ", "value": 0.5}, {"measurement": "nuclear condensation (DAPI)", "setting": "[2]", "value": "nuclei were observed normal"}, {"measurement": "expression level of CAT enzyme, RXRγ +", "setting": "RXRγ", "value": 1.2}, {"measurement": "expression level of CAT enzyme, RXRγ −", "setting": "RXRγ", "value": 1.1}]}
